In patent US20240109880A1 (Insilico Medicine IP Limited, priority 2021, published 2024) one finds IC50 data, which are given here for 30 compounds.

The structures appear in SMILES notation.

This assay deals with KAT6A (Homo sapiens (Human), UniProt Q92794). The assay is described as follows: KAT6A Biochemical Assay (radiometric 384-well, [3H]-Ac-CoA, biotinylated H4(1-30) peptide). Conditions: 5 nM KAT6A enzyme solution (2×), 60 min reaction at room temperature. The procedure: Inhibition of KAT6A enzymatic activity by test compounds was determined using a radiometric 384-well format assay. A 10-point serial dilution of the test compounds were conducted in DMSO and then a volume of 200 nL was transferred into 384-well assay plate by Echo (Labcyte). 10 μL of 2× enzyme solution (5 nM KAT6A (Active Motif) in assay buffer (50 mM Tris-HCl pH 8.0, 50 mM KCl, 0.1 mM EDTA, 5% glycerol, 1 mM DTT)) was dispensed into assay plate except for low control wells, in which 10 μL of assay buffer was transferred. The plate was incubated at room temperature for 15 min before addition of 10 μL of 2×[^3H]-acetyl coenzyme A (Ac-CoA) and substrate peptide mix solution (500 nM (KAT6A) [^3H]-Ac-CoA (PerkinElmer) and 800 nM (KAT6A) biotinylated H4(1-30) peptide (GL Biochem) in assay buffer) to each well to start reaction. The plate was incubated at room temperature for 60 min (KAT6A), and then the reaction was stopped by adding 10 μL of stop solution (cold Ac-CoA (Cayman) in 1× assay buffer). 25 μL of reaction in each well was transferred to Flashplate (PerkinElmer) and incubated for another 1 hour at room temperature. The plate was read on Microbeta and the inhibition percentage of each compound treated well was calculated based on the equation in h %=(Max−sample)/(Max−Min)*100 where Max is signal from high control wells with enzyme, and Min is signal from low control wells with assay buffer only. The in h % data were further fit in XL-Fit to obtain IC50 values using a 4-parameter logistic (4PL) sigmoidal curve model.
Sequence of KAT6A (Q92794 whole entry): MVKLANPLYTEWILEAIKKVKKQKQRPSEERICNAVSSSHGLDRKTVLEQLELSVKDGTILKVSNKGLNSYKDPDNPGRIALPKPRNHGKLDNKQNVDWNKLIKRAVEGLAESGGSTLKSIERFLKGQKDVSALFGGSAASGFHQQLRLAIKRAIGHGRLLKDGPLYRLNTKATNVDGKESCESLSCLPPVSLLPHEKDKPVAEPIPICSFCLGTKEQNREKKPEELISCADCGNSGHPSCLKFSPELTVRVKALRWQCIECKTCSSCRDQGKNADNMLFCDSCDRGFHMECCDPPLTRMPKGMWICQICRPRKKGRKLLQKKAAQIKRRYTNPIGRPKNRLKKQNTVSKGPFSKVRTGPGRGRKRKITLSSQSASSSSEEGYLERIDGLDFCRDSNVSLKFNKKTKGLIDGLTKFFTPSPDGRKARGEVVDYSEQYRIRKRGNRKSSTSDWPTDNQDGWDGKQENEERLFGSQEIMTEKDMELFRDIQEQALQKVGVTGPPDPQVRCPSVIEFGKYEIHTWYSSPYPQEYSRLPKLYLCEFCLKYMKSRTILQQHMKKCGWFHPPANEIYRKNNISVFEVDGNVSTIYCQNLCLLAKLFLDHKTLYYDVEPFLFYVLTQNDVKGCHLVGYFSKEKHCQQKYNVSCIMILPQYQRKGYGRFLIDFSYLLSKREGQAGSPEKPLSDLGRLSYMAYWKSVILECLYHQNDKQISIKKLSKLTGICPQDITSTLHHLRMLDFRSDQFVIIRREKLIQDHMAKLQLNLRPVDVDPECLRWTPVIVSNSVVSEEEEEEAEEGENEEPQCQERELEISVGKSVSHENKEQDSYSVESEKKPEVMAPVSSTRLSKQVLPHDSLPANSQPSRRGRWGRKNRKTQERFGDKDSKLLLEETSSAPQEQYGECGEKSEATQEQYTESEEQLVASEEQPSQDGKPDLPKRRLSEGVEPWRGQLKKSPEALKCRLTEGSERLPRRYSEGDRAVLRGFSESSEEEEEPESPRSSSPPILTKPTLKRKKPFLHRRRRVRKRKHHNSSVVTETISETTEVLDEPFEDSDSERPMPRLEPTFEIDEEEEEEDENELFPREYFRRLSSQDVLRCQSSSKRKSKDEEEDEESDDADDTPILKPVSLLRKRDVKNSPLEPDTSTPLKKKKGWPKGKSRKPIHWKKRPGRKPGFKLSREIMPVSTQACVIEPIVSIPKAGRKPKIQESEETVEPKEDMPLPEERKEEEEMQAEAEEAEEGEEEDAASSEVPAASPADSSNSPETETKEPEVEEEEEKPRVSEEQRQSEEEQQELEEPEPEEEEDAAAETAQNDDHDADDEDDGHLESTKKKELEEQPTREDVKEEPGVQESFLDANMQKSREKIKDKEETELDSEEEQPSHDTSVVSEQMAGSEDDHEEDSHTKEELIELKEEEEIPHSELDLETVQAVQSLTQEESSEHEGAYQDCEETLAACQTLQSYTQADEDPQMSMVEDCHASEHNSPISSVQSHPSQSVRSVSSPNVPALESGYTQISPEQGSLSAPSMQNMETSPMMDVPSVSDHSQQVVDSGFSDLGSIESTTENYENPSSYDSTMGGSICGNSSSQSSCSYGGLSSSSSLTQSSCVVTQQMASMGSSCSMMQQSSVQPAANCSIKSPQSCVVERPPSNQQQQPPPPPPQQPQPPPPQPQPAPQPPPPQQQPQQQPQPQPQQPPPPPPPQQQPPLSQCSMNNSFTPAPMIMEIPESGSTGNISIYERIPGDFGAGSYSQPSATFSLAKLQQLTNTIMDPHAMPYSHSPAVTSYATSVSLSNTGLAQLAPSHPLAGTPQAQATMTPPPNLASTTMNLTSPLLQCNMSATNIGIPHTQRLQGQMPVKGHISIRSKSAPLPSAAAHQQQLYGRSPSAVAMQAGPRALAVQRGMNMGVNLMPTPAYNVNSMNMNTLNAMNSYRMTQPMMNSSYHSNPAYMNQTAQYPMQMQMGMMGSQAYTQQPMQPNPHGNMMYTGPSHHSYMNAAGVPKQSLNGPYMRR
Usually IC50 stands for the concentration that gives 50% inhibition. Regarding `COc1cccc(OC)c1S(=O)(=O)Nc1noc2cc(Cn3cccn3)cnc12` [Compound 1, N-(6-((1H-pyrazol-1-yl)methyl)isoxazolo[4,5-b]pyridin-3-yl)-2,6-dimethoxybenzenesulfonamide], the IC50 is 10 to 1000 nM.

On to `COc1ccnc(OC)c1S(=O)(=O)Nc1noc2cc(Cn3cccn3)cc(OC)c12` [Compound 2, N-(6-((1H-pyrazol-1-yl)methyl)-4-methoxybenzo[d]isoxazol-3-yl)-2,4-dimethoxypyridine-3-sulfonamide], for which the IC50 lay within 10 to 100 nM.

The compound `COc1cccc(OC)c1S(=O)(=O)Nc1noc2cc(Cn3cccn3)cc(OC(F)F)c12` [Compound 3, N-(6-((1H-pyrazol-1-yl)methyl)-4-(difluoromethoxy)benzo[d]isoxazol-3-yl)-2,6-dimethoxybenzenesulfonamide] gave an IC50 of less than 10 nM.

With `COc1cccc(OC)c1S(=O)(=O)Nc1noc2cc(Cn3cccn3)cc(OCC(F)(F)F)c12` [Compound 4, N-(6-((1H-pyrazol-1-yl)methyl)-4-(2,2,2-trifluoroethoxy)benzo[d]isoxazol-3-yl)-2,6-dimethoxybenzenesulfonamide], the IC50 was 10 to 100 nM.

The compound `COc1ccnc(OC)c1S(=O)(=O)Nc1noc2cc(Cn3cccn3)cc(OC(F)F)c12` [Compound 5, N-(6-((1H-pyrazol-1-yl)methyl)-4-(difluoromethoxy)benzo[d]isoxazol-3-yl)-2,4-dimethoxypyridine-3-sulfonamide] came in with an IC50 of 10 to 100 nM.

Regarding `COc1ccccc1S(=O)(=O)Nc1noc2cc(Cn3cccn3)cc(OC(F)F)c12` [Compound 6, N-(6-((1H-pyrazol-1-yl)methyl)-4-(difluoromethoxy)benzo[d]isoxazol-3-yl)-2-methoxybenzenesulfonamide], the IC50 fell in the range of 10 to 100 nM.

`O=S(=O)(Nc1noc2cc(Cn3cccn3)cc(OC(F)F)c12)c1ccccc1OC(F)(F)F` [Compound 7, N-(6-((1H-pyrazol-1-yl)methyl)-4-(difluoromethoxy)benzo[d]isoxazol-3-yl)-2-(trifluoromethoxy)benzenesulfonamide] displayed an IC50 of 10 to 1000 nM.

On to `COc1cccc(OC)c1S(=O)(=O)Nc1noc2cc(Cn3cccn3)cc(OC(F)(F)F)c12` [Compound 8, N-(6-((1H-pyrazol-1-yl)methyl)-4-(trifluoromethoxy)benzo[d]isoxazol-3-yl)-2,6-dimethoxybenzenesulfonamide], for which the IC50 lay within 10 to 100 nM.

Compound `COc1cc(C)nc(OC)c1S(=O)(=O)Nc1noc2cc(Cn3cccn3)cc(OC)c12` [Compound 11, N-(6-((1H-pyrazol-1-yl)methyl)-4-methoxybenzo[d]isoxazol-3-yl)-2,4-dimethoxy-6-methylpyridine-3-sulfonamide] displayed an IC50 of less than 10 nM.

The compound `COc1ccccc1S(=O)(=O)Nc1noc2cc(Cn3cccn3)cc(OC(F)(F)F)c12` [Compound 12, N-(6-((1H-pyrazol-1-yl)methyl)-4-(trifluoromethoxy)benzo [d]isoxazol-3-yl)-2-methoxybenzenesulfonamide] yielded an IC50 of 10 to 100 nM.

Take `COc1cccc(OC)c1S(=O)(=O)Nc1noc2nc(Cn3cccn3)cc(OC)c12` [Compound 13, N-(6-((1H-pyrazol-1-yl)methyl)-4-methoxyisoxazolo[5,4-b]pyridin-3-yl)-2,6-dimethoxybenzenesulfonamide]: the IC50 was more than 1000 nM.

In turn, `COc1ccccc1S(=O)(=O)Nc1noc2cc(Cn3cccn3)c3c(c12)OCCC3` [Compound 15, N-(5-((1H-pyrazol-1-yl)methyl)-3,4-dihydro-2H-chromeno [8,7-d]isoxazol-9-yl)-2-methoxybenzenesulfonamide] returned an IC50 of less than 10 nM.

`COc1ncccc1S(=O)(=O)Nc1noc2cc(Cn3cccn3)c3c(c12)OCCC3` [Compound 16, N-(5-((1H-pyrazol-1-yl)methyl)-3,4-dihydro-2H-chromeno [8,7-d]isoxazol-9-yl)-2-methoxypyridine-3-sulfonamide] registered an IC50 of 10 to 100 nM.

In turn, `COc1ccnc(OC)c1S(=O)(=O)Nc1noc2cc(Cn3cccn3)c3c(c12)OCCC3` [Compound 17, N-(5-((1H-pyrazol-1-yl)methyl)-3,4-dihydro-2H-chromeno [8,7-d]isoxazol-9-yl)-2,4-dimethoxypyridine-3-sulfonamide] yielded an IC50 of less than 10 nM.

As for `COc1cc(C)nc(OC)c1S(=O)(=O)Nc1noc2cc(Cn3cccn3)c3c(c12)OCCC3` [Compound 18, N-(5-((1H-pyrazol-1-yl)methyl)-3,4-dihydro-2H-chromeno [8,7-d]isoxazol-9-yl)-2,4-dimethoxy-6-methylpyridine-3-sulfonamide], the IC50 was less than 10 nM.

For `COc1ccnc(OC)c1S(=O)(=O)Nc1noc2cc(Cn3cccn3)c3c(c12)OCCCC3` [Compound 20, N-(6-((1H-pyrazol-1-yl)methyl)-2,3,4,5-tetrahydrooxepino [3′,2′:5,6]benzo[1,2-d]isoxazol-10-yl)-2,4-dimethoxypyridine-3-sulfonamide], the IC50 is less than 10 nM.

The compound `COc1cc(C)nc(OC)c1S(=O)(=O)Nc1noc2cc(Cn3cccn3)c3c(c12)OCCCC3` [Compound 21, N-(6-((1H-pyrazol-1-yl)methyl)-2,3,4,5-tetrahydrooxepino [3′,2′:5,6]benzo[1,2-d]isoxazol-10-yl)-2,4-dimethoxy-6-methylpyridine-3-sulfonamide] came in with a half-maximal inhibitory concentration (IC50) of less than 10 nM.

As to `COc1ccccc1S(=O)(=O)Nc1noc2cc(Oc3ccccn3)c3c(c12)OCCC3` [Compound 25, 2-methoxy-N-(5-(pyridin-2-yloxy)-3,4-dihydro-2H-chromeno [8,7-d]isoxazol-9-yl)benzenesulfonamide], the IC50 is less than 10 nM.

In turn, `COc1ccccc1S(=O)(=O)Nc1noc2cc(Oc3ccccn3)c3c(c12)OCC3` [Compound 26, 2-methoxy-N-(4-(pyridin-2-yloxy)-2,3-dihydrobenzofuro[7,6-d]isoxazol-8-yl)benzenesulfonamide] yielded an IC50 of 10 to 100 nM.

`COc1cccc(OC)c1S(=O)(=O)Nc1noc2cc(Oc3cccnn3)c3c(c12)OCCC3` [Compound 30, 2,6-dimethoxy-N-(5-(pyridazin-3-yloxy)-3,4-dihydro-2H-chromeno[8,7-d]isoxazol-9-yl)benzenesulfonamide] showed an IC50 of 10 to 100 nM.

Regarding `COc1cccc(OC)c1S(=O)(=O)Nc1noc2cc(Cn3cccn3)cc(OCF)c12` [Compound 31, N-(6-((1H-pyrazol-1-yl)methyl)-4-(fluoromethoxy)benzo [d]isoxazol-3-yl)-2,6-dimethoxybenzenesulfonamide], the IC50 is less than 10 nM.

`COc1ccnc(OC)c1S(=O)(=O)Nc1noc2cc(Cn3cccn3)c3c(c12)OCC3` [Compound 32, N-(4-((1H-pyrazol-1-yl)methyl)-2,3-dihydrobenzofuro[7,6-d]isoxazol-8-yl)-2,4-dimethoxypyridine-3-sulfonamide] showed an IC50 of 10 to 100 nM.

`COc1cccc(OC)c1S(=O)(=O)Nc1noc2cc(Oc3ncccn3)c3c(c12)OCCC3` [Compound 33, 2,6-dimethoxy-N-(5-(pyrimidin-2-yloxy)-3,4-dihydro-2H-chromeno[8,7-d]isoxazol-9-yl)benzenesulfonamide] registered an IC50 of 10 to 100 nM.

`COc1cccc(OC)c1S(=O)(=O)Nc1noc2cc(Oc3ncco3)c3c(c12)OCCC3` [Compound 34, 2,6-dimethoxy-N-(5-(oxazol-2-yloxy)-3,4-dihydro-2H-chromeno[8,7-d]isoxazol-9-yl)benzenesulfonamide] came in with an IC50 of less than 10 nM.

For `COc1cccc(OC)c1S(=O)(=O)Nc1noc2cc(Oc3ncccc3C)c3c(c12)OCCC3` [Compound 36, 2,6-dimethoxy-N-(5-((3-methylpyridin-2-yl)oxy)-3,4-dihydro-2H-chromeno[8,7-d]isoxazol-9-yl)benzenesulfonamide], the IC50 is less than 10 nM.

The compound `COc1cc(C)nc(OC)c1S(=O)(=O)Nc1noc2cc(Cn3cccn3)cc(OCF)c12` [Compound 37] came in with an IC50 of less than 10 nM.

In the case of `COc1cc(C)ncc1S(=O)(=O)Nc1noc2cc(Cn3cccn3)cc(OC)c12` [Compound 38, N-(6-((1H-pyrazol-1-yl)methyl)-4-methoxybenzo[d]isoxazol-3-yl)-4-methoxy-6-methylpyridine-3-sulfonamide], the half-inhibitory concentration (IC50) fell in the range of 10 to 1000 nM.

`COc1cc(C2CC2)nc(OC)c1S(=O)(=O)Nc1noc2cc(Cn3cccn3)cc(OC)c12` [Compound 39, N-(6-((1H-pyrazol-1-yl)methyl)-4-methoxybenzo[d]isoxazol-3-yl)-6-cyclopropyl-2,4-dimethoxypyridine-3-sulfonamide]: the IC50 is 10 to 100 nM.

For `COc1cc(C(F)F)nc(OC)c1S(=O)(=O)Nc1noc2cc(Cn3cccn3)cc(OC)c12` [Compound 40, N-(6-((1H-pyrazol-1-yl)methyl)-4-methoxybenzo[d]isoxazol-3-yl)-6-(difluoromethyl)-2,4-dimethoxypyridine-3-sulfonamide], the IC50 lay in the range of 10 to 1000 nM.

Regarding `COc1cc(C(F)(F)F)nc(OC)c1S(=O)(=O)Nc1noc2cc(Cn3cccn3)cc(OC)c12` [Compound 41, N-(6-((1H-pyrazol-1-yl)methyl)-4-methoxybenzo[d]isoxazol-3-yl)-2,4-dimethoxy-6-(trifluoromethyl)pyridine-3-sulfonamide], the IC50 was in the range of 10 to 100 nM.
